Experimental data taken from patent US9238074B2, “Crystalline forms of the di-sodium salt of N-(5-chlorosalicyloyl)-8-aminocaprylic acid” (Emisphere Technologies, Inc., priority 2005, dated 2016).

Test: Stability of crystalline forms of 5-CNAC (room temperature, humidity, storage)

| Compound | stability as a function of relative humidity (relative humidity below about 50%) | form conversion on storage (storage of the mixture of Forms I and IV (Example 5) over time) |
| --- | --- | --- |
| O=C([O-])CCCCCCCNC(=O)c1cc(Cl)ccc1[O-].[Na+].[Na+] [Form III, di-sodium salt of N-(5-chlorosalicyloyl)-8-aminocaprylic acid] | unstable at a relative humidity below about 50% |  |
| O=C([O-])CCCCCCCNC(=O)c1cc(Cl)ccc1[O-].[Na+].[Na+] [Form IV, di-sodium salt of N-(5-chlorosalicyloyl)-8-aminocaprylic acid] |  | convert to Form I over time on storage |
